Assay results taken from patent US20100069668A1, “5-[(2R)-[2-[2-(2,2,2-TRIFLUOROETHOXY)PHENOXY]ETHYL]AMINO]PROPYL]-2-METHOXYBENZENESULFONAMIDE” (priority 2006, published 2010).
Counter-ions that a name gives are not always drawn.

Legend:
α1 receptor [1] = experiment: antagonism of norepinephrine-induced contraction of isolated urethra smooth muscle; type: cell-based, rat; conditions: for pA2 for antagonism of norepinephrine-induced contraction, urethra: isolated rat urethra; for the intensity ratio of the contraction caused by inhibiting norepinephrine, urethra/aorta / the intensity ratio of the contraction caused by inhibiting norepinephrine, urethra/vas deferens: calculated by pA2 value
Experimental: (§1) The antagonism and antagonistic selectivity of α1 receptor of different isolated smooth muscle specimens treated with the compound having formula (I).
(§2) Methods: a 24-hour fasting rat was hit on the head to induce coma, and quickly dissected the abdominal cavity, its urethra, aorta and vas deferens were respectively taken out and recorded the contraction curve with instruments, then the different concentrations and volumes of norepinephrine were added to get noradrenalin's accumulation curve, rinsed immediately to return to baseline, then different concentrations of test drugs were added. Noradrenaline was added repeatedly after 5˜8 minute to obtain average contractile response curve of noradrenalin under different concentrations of antagonist, the contraction pD2 of noradrenaline on the urethra, aorta, vas deferens under different concentrations of samples for test was calculated, the pA2 value for antagonism of contraction caused by the samples against norepinephrine was obtain by regressing with the concentration of test samples and pD2.
Results: pA2 value for the contraction of the different organizations inhibition of smooth muscle specimens induced by the hydrochlorate of compound I and tamsulosin hydrochloride against norepinephrine is shown in Table 1. The intensity ratio of contraction inhibitive effect of urethra and aorta, urethra and vas deferens smooth muscle, caused by the sample against noradrenaline is disclosed in table 2, which is calculated by pA2 value.

α1 receptor [2] = experiment: antagonism of norepinephrine-induced contraction of isolated aorta smooth muscle; type: cell-based; conditions: isolated rat aorta
Experimental: as §1, §2
(§3) Results: pA2 value for the contraction of the different organizations inhibition of smooth muscle specimens induced by the hydrochlorate of compound I and tamsulosin hydrochloride against norepinephrine is shown in Table 1. […]

α1 receptor [3] = experiment: antagonism of norepinephrine-induced contraction of isolated vas deferens smooth muscle; type: cell-based; conditions: isolated rat vas deferens
Experimental: as §1, §2, §3

CCOc1ccccc1OCCN[C@H](C)Cc1ccc(OC)c(S(N)(=O)=O)c1 [Tamsulosin hydrochloride]
pA2 for antagonism of norepinephrine-induced contraction, urethra (α1 receptor [1]): 9.22
the intensity ratio of the contraction caused by inhibiting norepinephrine, urethra/aorta (α1 receptor [1]): 3.83
the intensity ratio of the contraction caused by inhibiting norepinephrine, urethra/vas deferens (α1 receptor [1]): 0.123
pA2 value for the contraction caused by inhibiting norepinephrine, aorta (α1 receptor [2]): 8.63
pA2 value for the contraction caused by inhibiting norepinephrine, vas deferens (α1 receptor [3]): 10.12

COc1ccc(C[C@@H](C)NCCOc2ccccc2OCC(F)(F)F)cc1S(N)(=O)=O [the hydrochlorate of compound I, 5-[(2R)-[2-[2-[2-(2,2,2-trifluoroethoxy)phenoxy]ethyl]amino]propyl]-2-methoxybenzenesulfonamide]
pA2 for antagonism of norepinephrine-induced contraction, urethra (α1 receptor [1]): 11.00
the intensity ratio of the contraction caused by inhibiting norepinephrine, urethra/aorta (α1 receptor [1]): 607.31
the intensity ratio of the contraction caused by inhibiting norepinephrine, urethra/vas deferens (α1 receptor [1]): 8.120
pA2 value for the contraction caused by inhibiting norepinephrine, aorta (α1 receptor [2]): 8.21
pA2 value for the contraction caused by inhibiting norepinephrine, vas deferens (α1 receptor [3]): 10.08
